Several values for one entry are separate records, joined by “and”; a condition that tells them apart may be missing. Identical values can stand only once. Where no end group is shown, it is not given here.
Key:
elastase = test: Relative activity (NIR fluorescence) of quenched peptides with control protease elastase; assay type: biochemical
SARS-CoV-2 main protease [1] = target: T1, SARS-CoV-2 main protease (Severe acute respiratory syndrome coronavirus 2, UniProt P0DTD1)
SARS-CoV-2 main protease [2] = target: T1, SARS-CoV-2 main protease; conditions: 0.1 mg/mL peptide; for Cleavage of peptide (site) by SARS-CoV-2 main protease: protease 10 μM, RP-HPLC-MS
Procedure: Mass spectra were acquired on a Agilent Technologies 6530 Accurate Mass Q-TOF LC/MS with an Agilent Infinity 1260/1290 HPLC. RP-HPLC was carried out using a RP-aqueous 030 analytical column, 5 uM, 150×2.0 mm [Phenomenex]. The mobile phase was A) 10 mM ammonium formate/2% v/v MeCN, pH 6.2 and B) 10 mM ammonium formate/90% v/v MeCN, pH 6.2.
The gradient used was 0.2 mL-min, 25 minutes.
0.1 mg/mL solution of each peptide in Table 3 was incubated with SARS-CoV-2 main protease (at 10 μM).

SARS-CoV-2 = test: Clinical samples PCR-characterized for SARS-CoV-2, relative activity on DeNIRO; conditions: peptide 20 μM; for Relative activity class, SARS-CoV-2 positive (swab): room temperature, 0-60 minutes
Rhinovirus = test: Clinical sample, Rhinovirus positive, relative activity on DeNIRO; conditions: peptide 20 μM
[3] = test system: Mycobacterium tuberculosis
saliva proteases = test: Cross reactivity to saliva proteases; assay type: biochemical; set-up: key: −: Not observed; +: observed

Substance | Relative activity, Elastase 0.2 μM (elastase; peptide concentration 5 μM) | Relative activity, Elastase 0.2 μM (elastase; peptide concentration 20 μM) | Ratio for SARS-CoV-2 main protease to elastase (SARS-CoV-2 main protease [1]) | Relative activity, SARS-CoV-2 main protease 0.2 μM (SARS-CoV-2 main protease [1]; pH 7.3) | Cleavage fragment (SARS-CoV-2 main protease [2]; SARS-CoV-2 main protease 10 μM, 4 hours) | Cleavage of peptide (site) by SARS-CoV-2 main protease (SARS-CoV-2 main protease [2]) | Relative activity class, SARS-CoV-2 negative (saliva) (SARS-CoV-2) | Relative activity class, SARS-CoV-2 negative (swab) (SARS-CoV-2) | Relative activity class, SARS-CoV-2 positive (saliva) (SARS-CoV-2) | Relative activity class, SARS-CoV-2 positive (swab) (SARS-CoV-2) | Relative activity class, Rhinovirus positive (Rhinovirus) | Relative activity class, Mycobacterium tuberculosis positive [3] | Cross reactivity to saliva proteases (saliva proteases) | increase in RFU (SARS-CoV-19 virus)
Cy7-Ahx-AAFAA-K(QC1)-CONH2 [Peptide 3] | 2.2 | 87.1 | 0.15 | 0.4 and 0.6 | NONE | No cleavage was observed |  |  |  |  |  |  |  | 
Cy7-Ahx-[PEG1]-HQS[PEG1]K(QC1)-CONH2 [Peptide 2] | 0.1 | 0.9 | 54 |  |  | between Q-S | − (a relative activity of <10% indicates absence of SARS-CoV-2 (−)) | − (a relative activity of <10% indicates absence of SARS-CoV-2 (−)) | + (A relative activity of >10% indicates the presence of SARS-CoV-2 (+)) | + (A relative activity of >10% indicates the presence of SARS-CoV-2 (+)) | − (a relative activity of <10% indicates absence of SARS-CoV-2 (−)) | − (key: A relative activity of >10% indicates the presence of SARS-CoV-2 (+); a relative activity of <10% indicates absence of SARS-CoV-2 (−)) | − | 
Cy7-Ahx-[PEG1]VLQS[PEG1]K(QC1)-CONH2 [Peptide 1] | 7 | 8.5 | 3.5 |  |  | between Q-S | − (a relative activity of <10% indicates absence of SARS-CoV-2 (−)) | − (a relative activity of <10% indicates absence of SARS-CoV-2 (−)) | + (A relative activity of >10% indicates the presence of SARS-CoV-2 (+)) | + (A relative activity of >10% indicates the presence of SARS-CoV-2 (+)) | − (a relative activity of <10% indicates absence of SARS-CoV-2 (−)) | − (key: A relative activity of >10% indicates the presence of SARS-CoV-2 (+); a relative activity of <10% indicates absence of SARS-CoV-2 (−)) | − | 
Ex 1.1: fluorescently quenched peptide (TVRLQSGF) with fluorescent agent, non-fluorescent agent and cleavage site specific for a Coronavirus (also: fluorophore and quencher, sites not given here) |  |  |  |  |  |  |  |  |  |  |  |  |  | An increase in RFU is detected

— patent publication US20230203558A1, “[…] FOR USE IN A METHOD OF DIAGNOSIS OF VIRAL INFECTION, KIT AND SYSTEM” (Original G B.V., priority 2020, published 2023)
